From patent US12687540B2, “Amyloid-binding compounds and methods of use thereof” (Vanderbilt University, priority 2019, dated 2026) come the findings set out here.

The IC50 is the concentration that inhibits the measured activity by half.

Series [1] has as its target T1, endogenous amyloid-β (Abeta) plaques in the 5XFAD brain lysate (Homo sapiens, UniProt P05067).
T1 construct: coexpressed five familial AD (FAD) and additively increase Abeta-42 production; from tissue; host or cells: midbrain lysate (supernatant) of 8-month-old 5XFAD transgenic mice
In words: HATCO assay (high-throughput amyloid Thioflavin competitive binding optical assay), thioflavin-T fluorescence readout. The arrangement: species or system 5XFAD mice. Particulars: for IC50: competition with thioflavin-T for Abeta in 5XFAD brain lysate, 384-well, 4-parameter fit. The text has this:
However, when bound to Abeta plaque, its FL increases dramatically and results in a strong FL signal with a characteristically shifted λmax to approximately 485 nm. In view thereof, as opposed to existing methods that detect binding of the dye through increased fluorescence, the present methods identify amyloid-binding compounds through a lack of binding between the dye and the amyloid, as evidenced by attenuated fluorescence. […] Accordingly, in some embodiments, the method of screening includes combining the target compound(s) with a dye (e.g., Thioflavin-T) and endogenous amyloid (e.g., endogenous amyloid-β (Abeta) plaques in the 5XFAD brain lysate), then measuring the fluorescence of the combination. In some embodiments, the fluorescence of the combination is then compared to negative and/or positive control.
HATCO competitive binding study. […] To facilitate the generation of concentration-response curves, fluorescence at each data point was averaged on a compound-by-compound basis and plotted as a function of concentration. […] From this curve, IC50 values for each compound were calculated by fitting the data to a 4-parameter logistical model in the GraphPad software package.
Brain lysate preparation—Excised midbrains of 5XFAD (8-month-old) or wt mice (age-matched) were homogenized for 5 min in 200 μL of buffer comprised of 21.4 g sucrose, 5 mL of 1 M tris base, and 0.5 mL of 0.5 M EDTA/250 mL DPBS using the T-25 basic Ultra-Turrax homogenizer. Additional 100 μL aliquots of this buffer were then added to the homogenized sample and re-homogenized for 2 min until a total added volume of 800 μL was attained. The sample was diluted to 4 mL total volume using another buffer comprised of 5% BSA, and 0.03% Tween 20 in DPBS solution. Roche Complete protease inhibitor tablets were added to both buffers immediately prior to use (1 tablet/10 mL buffer). The sample was centrifuged at 16,000 g for 30 min at 4° C. Aliquots of the supernatant were stored at −80° C. until use.
HATCO HTS assay—To translate the assay initially performed on a cuvette to a 384-well format, the general protocol includes the following steps: A fresh stock solution of thioflavin-T was prepared in distilled and deionized water after passing through a micro filter. The concentration of […] was measured according to Beer's law with an extinction coefficient of 26,620 M^−1cm^−1 at 416 nm. The stock solution was stored in darkness using aluminum foil and kept at 4° C. throughout the assay. Unless stated, each assaying well contained 10 μM of thioflavin-T, 5 mg/mL of freshly isolated and homogenized brain lysate (5 μL) obtained from 5XFAD mice and with 30 μM of screening compounds. […] For the negative control, the wells contained the same components minus positive control. The protein concentration of brain lysate throughout the study was normalized. After equilibration for 10 min at room temperature, the FL signal of the sample was measured using a Biotek Synergy NEO plate reader at an emission lambda max of 485 nm using an excitation of 465 nm and the signals of the different conditions were analyzed. The final volume per well was 50 μL. All assays were performed using a single dose of screening compounds in triplicate.
Once the preliminary hit compounds were identified, a cross-screening protocol was employed to validate the hits with duplicated concentrations for each hit.

The conditions of series [2]: mouse, in vivo. Here is the method:
In the HPLC experiment, WT and 5XFAD mice (n=3, each) were injected with promethazine via the tail veins, and subsequently perfused 10 min or 4 h post-injection. Freshly isolated brains were homogenized to facilitate extraction and quantification via HPLC using the procedure we reported earlier.

The test system of the next series is Abeta plaques. The series is described as follows: Autoradiography of human brain tissues from Alzheimer's disease patients with [11C]promethazine PET probe. Format: binding. Particulars: human AD brain tissue sections soaked in probe in PBS; compared with a large excess of cold promethazine. An excerpt: (A) Tissues ([…]) on glass slides were soaked in [^11C]promethazine PET probe diluted in PBS solution. (B) Tissues were soaked in the same solution as (A), albeit with the presence of a large excess of “cold” (unlabeled) promethazine, denoted as PMZ in the figure.

Read-outs that look alike come from different tables or passages of the source.

T1 sequence (P05067 672-713 limits assumed): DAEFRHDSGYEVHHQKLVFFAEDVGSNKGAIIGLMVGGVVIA

For the compound `Oc1ccc(/C=C/c2cc(O)cc(O)c2)cc1` [Resveratrol, (E)-5-(4-hydroxystyryl)benzene-1,3-diol], the “FL signal of thioflavin-T at 485 nm was reduced” value worked out at 4.4% in series [1] (100 μM), 25.9% in series [1] (500 μM) and 51% in series [1] (2000 μM).
Consider `O=C(O)c1cc(/N=N/c2ccc(S(=O)(=O)Nc3ccccn3)cc2)ccc1O` [VU0243360, 2-Hydroxy-5-[4-(pyridine-2-ylsulfamoyl)-phenylazo]-benzoic acid], for which the IC50 in series [1] came to 68.1 µM.
As to `O=C(N/N=C/c1ccc([N+](=O)[O-])o1)c1cc([N+](=O)[O-])cc([N+](=O)[O-])c1O` [VU0656139, 2-Hydroxy-3,5-dinitro-benzoic acid (5-nitro-furan-2-ylmethylene)-hydrazide], in series [1], the IC50 is 61.2 µM.
With “1,6,7,1′,6′,7′-Hexahydroxy-5,5′-diisopropyl-3,3′-dimethyl-[2,2′]binaphthalenyl-8,8′-dicarbaldehyde [VU0243640]”, the IC50 in series [1] came to 84.2 µM.
`CC(CN1c2ccccc2Sc2ccccc21)N(C)C` (centres unmarked) [Promethazine, N,N-dimethyl-1-(10H-phenothiazin-10-yl)propan-2-amine]: the “increase in promethazine retention in Aβ-burdened brains (5XFAD vs WT)” value in series [2] (5XFAD versus WT, 10 min) is around 4 fold. The “level of promethazine measured in brain (mean)” value in series [2] (5XFAD, 10 min) stood at 9.62 µg; in series [2] (10 min), 2.57 µg. Further, the “original dose retained within the brain” value in series [2] (5XFAD, 10 min) was found to be 2%; in series [2] (5XFAD, 240 min), 0.5%; in series [2] (10 min), 0.5%; in series [2] (240 min) it was 0.01%. Also, the IC50 in series [1] worked out at 53.6 µM.
Consider `CC(CN1c2ccccc2Sc2ccccc21)N(C)C` (centres unmarked) [[^11C]promethazine], for which, in the series on Abeta plaques, the “binding to Abeta plaques by autoradiography” value was “bound to Abeta plaques”.
On to `O=C1C(Cl)=C(Cl)C(=O)C(Cl)=C1Cl` [VU0243635, 2,3,5,6-Tetrachloro-[1,4]benzoquinone], for which the IC50 in series [1] turned out to be 90.8 µM.
Turning to `Nc1ccc(/N=N/c2ccccc2)c(N)n1` [VU0244402, 3-Phenylazo-pyridine-2,6-diamine], the IC50 in series [1] came out at 74.3 µM.
